According to ChEMBL document CHEMBL1122830, “N-(Phosphonoacetyl)amino phosphonates. Phosphonate analogues of N-(phosphonoacetyl)-L-aspartic acid (PALA)” (1985):
Calls of active or inactive are those of the source. No cut-off for these calls is given here.

Test system: KB
Assay: Inhibitory activity against human KB cell line
Assay type: functional
Conditions: read-out: ID50 (the source's name)

Row | Structure (SMILES) | IC50
1 | CCOP(=O)(OCC)C(N)C(C)(C)C.O=C(O)C(=O)O (stereo unspecified) | 240 µg/mL

Test system: KB
Assay: Inhibitory activity against human KB cell line at the dose range of 1-400 (ug/mL); NA=Not active
Assay type: functional, cell-based
Conditions: not given

Row | Structure (SMILES) | ID50
2 | CCCC(NC(=O)CP(=O)(O)O)P(=O)(O)O (stereo in doubt; form 1) | inactive
3 | CCOC(=O)CCCC(N)P(=O)(OCC)OCC (stereo unspecified) | inactive
4 | O=C(CP(=O)(O)O)NC(C1CCC1)P(=O)(O)O (stereo unspecified) | inactive
5 | CCCC(NC(=O)CP(=O)(O)O)P(=O)(O)O (stereo in doubt; form 2) | inactive
6 | O=C(CP(=O)(O)O)NC(CP(=O)(O)O)C(=O)O (stereo unspecified) | inactive
7 | CCOP(=O)(OCC)C(N)CCC(=O)OC (stereo unspecified) | inactive
8 | O=C(CP(=O)(O)O)NC(C1CC1)P(=O)(O)O (stereo unspecified) | inactive
9 | O=C(CP(=O)(O)O)NC(C1CCCC1)P(=O)(O)O (stereo unspecified) | inactive
10 | CCOP(=O)(OCC)C(N)C1CCCCC1 (stereo unspecified) | inactive
11 | O=C(O)CCCC(NC(=O)CP(=O)(O)O)P(=O)(O)O (stereo unspecified) | inactive
12 | CCOP(=O)(OCC)C(N)C1CCCC1 (stereo unspecified) | inactive
13 | CC(NC(=O)CP(=O)(O)O)P(=O)(O)O (stereo unspecified) | inactive
14 | CC(C)(C)C(NC(=O)CP(=O)(O)O)P(=O)(O)O (stereo unspecified) | inactive
15 | CC(C)C(NC(=O)CP(=O)(O)O)P(=O)(O)O (stereo unspecified) | inactive
16 | O=C(CP(=O)(O)O)NC(C1CCCCC1)P(=O)(O)O (stereo unspecified) | inactive
17 | O=C(CP(=O)(O)O)NC(c1ccccc1)P(=O)(O)O (stereo unspecified) | inactive
18 | O=C(CP(=O)(O)O)NC1(P(=O)(O)O)CCCC1 | inactive
19 | O=C(O)CC(NC(=O)CP(=O)(O)O)C(=O)O (stereo unspecified) | inactive
20 | O=C(CP(=O)(O)O)NCCCP(=O)(O)O | inactive
21 | CCP(=O)(O)CNC(=O)CP(=O)(O)O | inactive
22 | CCOP(=O)(OCC)C(N)C1CC1 (stereo unspecified) | inactive
23 | O=C(O)CC(NC(=O)CP(=O)(O)O)P(=O)(O)O (stereo unspecified) | inactive
24 | CCOP(=O)(OCC)C(N)C1CCC1 (stereo unspecified) | inactive
25 | CC(C)(NC(=O)CP(=O)(O)O)P(=O)(O)O | inactive
26 | O=C(O)CCC(NC(=O)CP(=O)(O)O)P(=O)(O)O (stereo unspecified) | inactive
